Values after ≈ are worked out from the molar mass of the structure shown.
How the values were obtained:
[1] = tested on: Mycobacterium tuberculosis; assay: microbe, parasite or virus in culture; conditions: H37Rv, 168 h
Description: Antimycobacterial activity against Mycobacterium tuberculosis H37Rv assessed as inhibition of bacterial growth measured after 7 days by microplate alamar blue assay

[2] = in vitro; conditions: monkey, Vero cells
Description: Selectivity index, ratio of IC50 for African green monkey vero cells to MIC for Mycobacterium tuberculosis H37Rv

[3] = tested on: Vero; assay: Cytotoxicity against African green monkey vero cells assessed as reduction in cell viability measured after 48 hrs by MTT assay; format: functional, cell-based; conditions: Chlorocebus sabaeus
[4] = tested on: Mycolicibacterium smegmatis; assay: Antimycobacterial activity against Mycobacterium smegmatis harboring MsmgdeltammpL3/pMVGHI-mmpL3tb G253E mutant assessed as reduction in bacterial growth measured after 16 hrs […]; format: functional
[5] = tested on: Mycobacterium tuberculosis; assay: Antimycobacterial activity against Mycobacterium tuberculosis mc2 6206 assessed as decrease in trehalose dimycolate measured after 16 hrs using [14C]acetate by TLC analysis; format: functional, organism-based; conditions: DDE = dose-dependent effect
[6] = tested on: Mycolicibacterium smegmatis; assay: Antimycobacterial activity against Mycobacterium smegmatis harboring MsmgdeltammpL3/pMVGHI-mmpL3tb mutant assessed as reduction in bacterial growth measured after 16 hrs […]; format: functional
[7] = tested on: Mycobacterium tuberculosis; assay: Antimycobacterial activity against Mycobacterium tuberculosis mc2 6206 assessed as decrease in mycolic acid transfer to cell wall arabinogalactan measured after 16 hrs using [14C]acetate by TLC analysis; format: functional, organism-based; conditions: dose 0.0625-1 µg/ml, DDE = dose-dependent effect
[8] = tested on: Mycobacterium tuberculosis; assay: microbe, parasite or virus in culture; conditions: H37Rv mc2 6206, 16 h
Description: Antimycobacterial activity against Mycobacterium tuberculosis H37Rv mc2 6206 assessed as reduction in bacterial growth measured after 16 hrs by TLC analysis

[9] = Metabolic stability in mouse liver microsomes at 0.5 uM measured after 15 to 120 mins in presence of NADPH by LC-MS/MS analysis; format: ADME, Microsome; conditions: time 15-120 min
[10] = Metabolic stability in mouse liver microsomes at 0.5 uM measured after 15 to 120 mins in absence of NADPH by LC-MS/MS analysis; format: ADME, Microsome; conditions: time 15-120 min

SMILES | MIC90 [1] [µg/mL] | IC50 [3] [µg/mL] | further results
COc1ccc(-c2c[nH]c(C(=O)NC3C4CC5CC(C4)CC3C5)c2)cn1 (stereo unspecified) | 0.25 (≈ 0.711 µM) |  | selectivity ratio [2]: 137
O=C(NC1C2CC3CC(C2)CC1C3)c1cc(-c2ccncc2)c[nH]1 (stereo unspecified) | 0.45 (≈ 1.4 µM) |  | selectivity ratio [2]: 99
O=C(Nc1ccccc1)c1cc(-c2ccc(Cl)cc2Cl)c[nH]1 | > 32 |  | 
CC1(C)CCC(NC(=O)c2cc(-c3ccc(Cl)cc3Cl)c[nH]2)CC1 | 0.5 (≈ 1.37 µM) |  | 
O=C(NC1C2CC3CC(C2)CC1C3)c1cc(-c2ccc(Cl)cc2)c[nH]1 (stereo unspecified) | 0.1 (≈ 0.282 µM) | 12.6 (≈ 35.5 µM) | selectivity ratio [2]: 126
O=C(NC1C2CC3CC(C2)CC1C3)c1cc(-c2ccccn2)c[nH]1 (stereo unspecified) | 0.12 (≈ 0.373 µM) | 47.3 (≈ 147 µM) | selectivity ratio [2]: 394
CC1(C)CCC(NC(=O)c2cc3c(Cl)cc(Cl)cc3[nH]2)CC1 | 0.015 (≈ 0.0442 µM) | 10.5 (≈ 30.9 µM) | selectivity ratio [2]: 700
O=C(NC12CC3CC(CC(C3)C1)C2)c1cc(-c2ccc(F)cc2)c[nH]1 | < 0.016 |  | 
O=C(NC1CCC(F)(F)CC1)c1cc(-c2ccc(Cl)cc2Cl)c[nH]1 | 6.1 (≈ 16.3 µM) |  | 
Nc1ncc(F)cc1-c1c[nH]c(C(=O)NC2C3CC4CC(C3)CC2C4)c1 (stereo unspecified) | 0.44 (≈ 1.24 µM) | 33.9 (≈ 95.6 µM) | selectivity ratio [2]: 77
NNC(=O)c1ccncc1 [ISONIAZID] | 0.04 (≈ 0.292 µM) |  | 
O=C(NC1C2CC3CC(C2)CC1C3)c1cc(-c2ccc(C(F)(F)F)cc2C(F)(F)F)c[nH]1 (stereo unspecified) | 1.08 (≈ 2.37 µM) |  | 
O=C(NC1CCCCCCC1)c1cc(-c2ccc(F)cc2F)c[nH]1 | < 0.016 |  | MIC=>90 [4]: 2 µg/mL (≈ 6.02 µM); inhibition [5]: Dde; MIC90 [6]: 0.25 µg/mL (≈ 0.752 µM); inhibition [7]: Dde; MIC90 [8]: 0.125 µg/mL (≈ 0.376 µM)
O=C(NC1CCCCCCC1)c1cc(-c2ccc(F)cc2)c[nH]1 | 0.03 (≈ 0.0954 µM) |  | 
O=C(NC1C2CC3CC(C2)CC1C3)c1cc(-c2cncnc2)c[nH]1 (stereo unspecified) | 0.96 (≈ 2.98 µM) |  | 
CCCNC(=O)c1cc(-c2ccc(Cl)cc2Cl)c[nH]1 | 12.5 (≈ 42.1 µM) |  | 
O=C(NC1CCCCC1)c1cc(-c2ccc(Cl)cc2Cl)c[nH]1 | 6.5 (≈ 19.3 µM) |  | 
O=C(NC1C2CC3CC(C2)CC1C3)c1cc(-c2ccc(F)cc2)c[nH]1 (stereo unspecified) | < 0.016 | 12.6 (≈ 37.2 µM) | Stability [9]: 70.4%; selectivity ratio [2]: 788; Stability [10]: Stable
CN1CCN(C(=O)c2cc(-c3ccc(Cl)cc3Cl)c[nH]2)CC1 | 27.4 (≈ 81 µM) |  | 
O=C(NC1C2CC3CC(C2)CC1C3)c1cc(-c2ccccc2Cl)c[nH]1 (stereo unspecified) | 0.24 (≈ 0.676 µM) | > 64 | 

SMILES | MIC90 [1] [µg/mL] | IC50 [3] [µg/mL] | further results
O=C(NC1C2CC3CC(C2)CC1C3)c1cc(-c2cccnc2F)c[nH]1 (stereo unspecified) | 0.06 (≈ 0.177 µM) | > 64 | Stability [9]: 0%; Stability [10]: Stable
O=C(NC1CCCCCCC1)c1cc(-c2ccc(Cl)cc2)c[nH]1 | 0.24 (≈ 0.725 µM) |  | 
O=C(NC1CCCCCC1)c1cc(-c2ccc(Cl)cc2Cl)c[nH]1 | 1.9 (≈ 5.41 µM) |  | 
CN(C(=O)c1cc(-c2ccc(Cl)cc2Cl)cn1C)C1C2CC3CC(C2)CC1C3 (stereo unspecified) | > 32 |  | 
O=C(NC1C2CC3CC(C2)CC1C3)c1cc(-c2ccc(O)cc2F)c[nH]1 (stereo unspecified) | > 32 |  | 
O=C(NC1C2CC3CC(C2)CC1C3)c1cc(-c2ccc(Cl)nc2)c[nH]1 (stereo unspecified) | 0.24 (≈ 0.674 µM) | > 64 | 
O=C(NC12CC3CC(CC(C3)C1)C2)c1cc(-c2ccc(Cl)cc2)c[nH]1 | 0.155 (≈ 0.437 µM) |  | 
O=C(NC1C2CC3CC(C2)CC1C3)c1cc(-c2ccc(F)cc2F)c[nH]1 (stereo unspecified) | < 0.016 |  | Stability [9]: 61.4%; selectivity ratio [2]: 900; Stability [10]: Stable
COc1cc(F)ccc1-c1c[nH]c(C(=O)NC23CC4CC(CC(C4)C2)C3)c1 | < 0.016 |  | Stability [9]: 23.3%; Stability [10]: Stable
O=C(NC1C2CC3CC(C2)CC1C3)c1cc(-c2cccnc2Cl)c[nH]1 (stereo unspecified) | 0.28 (≈ 0.787 µM) | > 64 | 
COc1ncc(-c2c[nH]c(C(=O)NC3C4CC5CC(C4)CC3C5)c2)cn1 (stereo unspecified) | 3.8 (≈ 10.8 µM) |  | 
Cc1ccc(-c2c[nH]c(C(=O)NC3C4CC5CC(C4)CC3C5)c2)cn1 (stereo unspecified) | 1 (≈ 2.98 µM) |  | 
O=C(NC1C2CC3CC(C2)CC1C3)c1cc(-c2ccncc2Cl)c[nH]1 (stereo unspecified) | < 0.016 | 58.7 (≈ 165 µM) | Stability [9]: 73.4%; selectivity ratio [2]: 3670; Stability [10]: Stable
O=C(c1cc(-c2ccc(Cl)cc2Cl)c[nH]1)N1CCCC1 | 9.8 (≈ 31.7 µM) |  | 
O=C(NC1C2CC3CC(C2)CC1C3)c1cc(-c2ccc(Cl)cc2Cl)c[nH]1 (stereo unspecified) | 0.06 (≈ 0.154 µM) |  | MIC=>90 [4]: >4 µg/mL; inhibition [5]: Dde; MIC90 [6]: 1 µg/mL (≈ 2.57 µM); inhibition [7]: Dde; MIC90 [8]: 0.25 µg/mL (≈ 0.642 µM)
COc1cnccc1-c1c[nH]c(C(=O)NC2C3CC4CC(C3)CC2C4)c1 (stereo unspecified) | 0.24 (≈ 0.683 µM) | 58.8 (≈ 167 µM) | selectivity ratio [2]: 245
O=C(NC12CC3CC(CC(C3)C1)C2)c1cc(-c2ccc(Cl)cc2Cl)c[nH]1 | 0.058 (≈ 0.149 µM) |  | 
O=C(c1cc(-c2ccc(Cl)cc2Cl)c[nH]1)N1CCCCC1 | 7.7 (≈ 23.8 µM) |  | 
COc1cc(F)ccc1-c1c[nH]c(C(=O)NC2CCCCCCC2)c1 | < 0.016 |  | Stability [9]: 9.03%; Stability [10]: Stable
O=C(NC1CCCCCCC1)c1cc(-c2ccc(Cl)cc2Cl)c[nH]1 | 0.23 (≈ 0.63 µM) |  | 

SMILES | MIC90 [1] [µg/mL] | IC50 [3] [µg/mL] | further results
COc1ccc(-c2c[nH]c(C(=O)NC3C4CC5CC(C4)CC3C5)c2)c(F)c1 (stereo unspecified) | 0.47 (≈ 1.28 µM) | > 64 | 
Cc1nc(F)ccc1-c1c[nH]c(C(=O)NC2C3CC4CC(C3)CC2C4)c1 (stereo unspecified) | 0.062 (≈ 0.175 µM) | 27.7 (≈ 78.4 µM) | Stability [9]: 32.3%; selectivity ratio [2]: 447; Stability [10]: Stable
O=C(NC1C2CC3CC(C2)CC1C3)c1cc(-c2ccc(Cl)nc2Cl)c[nH]1 (stereo unspecified) | 0.24 (≈ 0.615 µM) | > 64 | 
O=C(NC1CCCCCCC1)c1cc(-c2ccncc2F)c[nH]1 | 0.06 (≈ 0.19 µM) |  | 
O=C(NC12CC3CC(CC(C3)C1)C2)c1cc(-c2ccncc2Cl)c[nH]1 | 0.03 (≈ 0.0843 µM) |  | Stability [9]: 42.7%; Stability [10]: Stable
O=C(NC1C2CC3CC(C2)CC1C3)c1cc(-c2ccccc2F)c[nH]1 (stereo unspecified) | < 0.016 | 12.6 (≈ 37.2 µM) | Stability [9]: 0%; selectivity ratio [2]: 1320; Stability [10]: Stable
O=C(c1cc(-c2ccc(Cl)cc2Cl)c[nH]1)N1CCOCC1 | 14.7 (≈ 45.2 µM) |  | 
Cc1ccc(-c2c[nH]c(C(=O)NC3C4CC5CC(C4)CC3C5)c2)c(C)c1 (stereo unspecified) | 0.97 (≈ 2.78 µM) |  | 
O=C(NC1C2CC3CC(C2)CC1C3)c1cc(-c2ccc(F)nc2)c[nH]1 (stereo unspecified) | 0.09 (≈ 0.265 µM) |  | selectivity ratio [2]: 391
O=C(NC1CCCCCCC1)c1cc(-c2ccncc2Cl)c[nH]1 | 0.05 (≈ 0.151 µM) |  | 
COc1ncc(F)cc1-c1c[nH]c(C(=O)NC2C3CC4CC(C3)CC2C4)c1 (stereo unspecified) | 0.016 (≈ 0.0433 µM) | > 64 | Stability [9]: 1.97%; Stability [10]: Stable
O=C(NC12CC3CC(CC(C3)C1)C2)c1cc(-c2ccncc2F)c[nH]1 | 0.06 (≈ 0.177 µM) |  | 
COc1ncccc1-c1c[nH]c(C(=O)NC2C3CC4CC(C3)CC2C4)c1 (stereo unspecified) | < 0.016 |  | Stability [9]: 0.63%; selectivity ratio [2]: 737; Stability [10]: Stable
Cn1cc(-c2ccc(Cl)cc2Cl)cc1C(=O)NC1C2CC3CC(C2)CC1C3 (stereo unspecified) | 3.7 (≈ 9.17 µM) |  | 
O=C(NC1C2CC3CC(C2)CC1C3)c1cc(-c2cccnc2)c[nH]1 (stereo unspecified) | 0.04 (≈ 0.124 µM) | 39.5 (≈ 123 µM) | selectivity ratio [2]: 988
COc1ccc(-c2c[nH]c(C(=O)NC3C4CC5CC(C4)CC3C5)c2)c(OC)c1 (stereo unspecified) | 0.24 (≈ 0.631 µM) | > 64 | 
COc1cc(F)ccc1-c1c[nH]c(C(=O)NC2C3CC4CC(C3)CC2C4)c1 (stereo unspecified) | < 0.016 | 22 (≈ 59.7 µM) | selectivity ratio [2]: 1380
O=C(NC1C2CC3CC(C2)CC1C3)c1cc(-c2ccncc2F)c[nH]1 (stereo unspecified) | 0.11 (≈ 0.324 µM) |  | selectivity ratio [2]: 415

From ChEMBL document CHEMBL5126604, “Design, Synthesis, and Biological Evaluation of Pyrrole-2-carboxamide Derivatives as Mycobacterial Membrane Protein Large 3 Inhibitors for Treating Drug-Resistant Tuberculosis” (J Med Chem, 2022)
